Values of other authors in US5730986A (priority 1995, dated 1998).

How the values were obtained:
[1] = in vivo
pepsinogen = details: rat stomach

In the case of `C/C=C(\C)C(=O)O[C@H]1C[C@@H](OC(C)=O)[C@@]2(C(=O)OC)CO[C@H]3[C@@H](O)[C@@](C)([C@]45O[C@@]4(C)[C@H]4C[C@@H]5O[C@@H]5OC=C[C@@]54O)[C@H]4[C@]1(CO[C@]4(O)C(=O)OC)[C@@H]32` [Azadirachtin], the pesticide properties (insects) is given as “phagorepellent, antifeadent and systemic growth disruptor properties in insects”, the “inhibition of the development of malarial parasites” value (malarial parasites) is given as “inhibitory to the development of malarial parasites” and the activity against larva (larva of P. xylostella L) is given as “active against larva of P. xylostella L”.

In the case of `[Mg+2].[OH-].[OH-]` [Mg(OH)2], the adverse reactions [1] is listed as “loose stools or diarrhea”.

In the case of `CN/C(=N/CCSCc1nc[nH]c1C)NC#N` [cimetidine], the “inhibition of cytochrome P450-catalyzed drug oxidation and hydroxylation of estradiol” value (cytochrome P450) is listed as “inhibits cytochrome P450 -catalyzed drug oxidation and hydroxylation of estradiol”.

For `COc1ccc2[nH]c([S+]([O-])Cc3ncc(C)c(OC)c3C)nc2c1` (stereo not drawn) [omeprazole], the “secretion, synthesis and gene expression of pepsinogen” value (pepsinogen) is listed as “reduces the secretion, synthesis and gene expression of pepsinogen”.
